From ChEMBL document CHEMBL1131559, “Novel quinolone derivatives as potent antibacterials” (1998)
In brackets after ≈: the same amount, converted by molar mass.

Key:
Escherichia coli [1] = assay: Compound was evaluated for in vitro antibacterial activity against gram negative organism Escherichia coli strain DRCC 133; assay type: functional
Streptococcus pyogenes = assay: Compound was evaluated for in vitro antibacterial activity against gram positive organism Streptococcus pyogenes strain DRCC 092; assay type: functional
Escherichia coli [2] = assay: Compound was evaluated for in vitro antibacterial activity against gram negative organism Escherichia coli strain DRCC 134; assay type: functional
Enterococcus faecalis [3] = assay: Compound was evaluated for in vitro antibacterial activity against gram positive organism Streptococcus faecalis strain ATCC 49384; assay type: functional
Pseudomonas aeruginosa [4] = assay: Compound was evaluated for in vitro antibacterial activity against gram negative organism Pseudomonas aeruginosa strain DRCC 131; assay type: functional
Pseudomonas aeruginosa [5] = assay: Compound was evaluated for in vitro antibacterial activity against gram negative organism Pseudomonas aeruginosa strain DRCC 137; assay type: functional
[6] = test system: Staphylococcus epidermidis; assay: Compound was evaluated for in vitro antibacterial activity against gram positive organism Staphylococcus epidermidis strain ATCC 12228; assay type: functional
Enterococcus faecalis [7] = assay: Compound was evaluated for in vitro antibacterial activity against gram positive organism Streptococcus faecalis strain ATCC 51299; assay type: functional
Klebsiella pneumoniae [8] = assay: Compound was evaluated for in vitro antibacterial activity against gram negative organism Klebsiella pneumoniae strain DRCC 132; assay type: functional
Pseudomonas aeruginosa [9] = assay: Compound was evaluated for in vitro antibacterial activity against gram negative organism Pseudomonas aeruginosa strains ATCC 27853; assay type: functional
[10] = test system: Salmonella enterica subsp. enterica serovar Abony; assay: Compound was evaluated for in vitro antibacterial activity against gram negative organism Salmonella abony strain NCIM 2257; assay type: functional
Staphylococcus aureus [11] = assay: Compound was evaluated for in vitro antibacterial activity against gram positive organism Staphylococcus aureus strain ATCC 33591; assay type: functional
Escherichia coli [12] = assay: Compound was evaluated for in vitro antibacterial activity against gram negative organism Escherichia coli strain ATCC 35218; assay type: functional
Escherichia coli [13] = assay: Compound was evaluated for in vitro antibacterial activity against gram negative organism Escherichia coli strain ATCC 25922; assay type: functional
Staphylococcus aureus [14] = assay: Compound was evaluated for in vitro antibacterial activity against gram positive organism Staphylococcus aureus strain ATCC 6538P; assay type: functional
Enterococcus faecalis [15] = assay: Compound was evaluated for in vitro antibacterial activity against gram positive organism Streptococcus faecalis strain ATCC 29212; assay type: functional
Pseudomonas fluorescens [16] = assay: Compound was evaluated for in vitro antibacterial activity against gram negative organism Pseudomonas fluorescence strain DRCC 008; assay type: functional
Salmonella typhi = assay: Compound was evaluated for in vitro antibacterial activity against gram negative organism Salmonella typhi strain MTCC 531; assay type: functional, Salmonella enterica subsp. enterica serovar Typhi; conditions: Salmonella enterica
Pseudomonas aeruginosa [17] = assay: Compound was evaluated for in vitro antibacterial activity against gram negative organism Pseudomonas aeruginosa strain DRCC 135; assay type: functional
Klebsiella pneumoniae [18] = assay: Compound was evaluated for in vitro antibacterial activity against gram negative organism Klebsiella pneumoniae strain DRCC 136; assay type: functional
Klebsiella pneumoniae [19] = assay: Compound was evaluated for in vitro antibacterial activity against gram negative organism Klebsiella pneumoniae strain ATCC 10031; assay type: functional
Pseudomonas aeruginosa [20] = assay: Compound was evaluated for in vitro antibacterial activity against gram negative organism Pseudomonas aeruginosa strain MTCC 1688; assay type: functional
Staphylococcus aureus [21] = assay: Compound was evaluated for in vitro antibacterial activity against gram positive organism Staphylococcus aureus strain MTCC 737; assay type: functional
Staphylococcus aureus [22] = assay: Compound was evaluated for in vitro antibacterial activity against gram positive organism Staphylococcus aureus strain ATCC 29213; assay type: functional
Salmonella typhimurium = assay: Compound was evaluated for in vitro antibacterial activity against gram negative organism Salmonella Typhimurium MTCC 98; assay type: functional, Salmonella enterica subsp. enterica serovar Typhimurium; conditions: Salmonella enterica
Staphylococcus aureus [23] = assay: Compound was evaluated for in vitro antibacterial activity against gram positive organism Staphylococcus aureus strain ATCC 33592; assay type: functional
Escherichia coli [24] = assay: Compound was evaluated for in vitro antibacterial activity against gram negative organism Escherichia coli strain DRCC 091; assay type: functional
Pseudomonas fluorescens [25] = assay: Compound was evaluated for in vitro antibacterial activity against gram negative organism Pseudomonas fluorescence strain NCIMB 10586; assay type: functional
Pseudomonas aeruginosa [26] = assay: Compound was evaluated for in vitro antibacterial activity against gram negative organism Pseudomonas aeruginosa strainsATCC 27853; assay type: functional; conditions: ATCC 27853
Staphylococcus aureus [27] = assay: Compound was evaluated for in vitro antibacterial activity against gram positive organism Staphylococcus aureus strainATCC 6538P; assay type: functional; conditions: ATCC 6538P
Enterococcus faecalis [28] = assay: Compound was evaluated for in vitro antibacterial activity against gram positive organism Streptococcus faecalis strainATCC 49384; assay type: functional; conditions: ATCC 49384

Row | Compound | MIC (Escherichia coli [1]) [µg/mL] | MIC (Streptococcus pyogenes) [µg/mL] | MIC (Escherichia coli [2]) [µg/mL] | MIC (Pseudomonas aeruginosa [4]) [µg/mL] | MIC [6] [µg/mL] | MIC (Klebsiella pneumoniae [8]) [µg/mL] | MIC [10] [µg/mL] | MIC (Staphylococcus aureus [11]) [µg/mL] | MIC (Enterococcus faecalis [15]) [µg/mL] | MIC (Pseudomonas fluorescens [16]) [µg/mL] | MIC (Salmonella typhi) [µg/mL] | MIC (Pseudomonas aeruginosa [17]) [µg/mL] | MIC (Klebsiella pneumoniae [18]) [µg/mL] | MIC (Klebsiella pneumoniae [19]) [µg/mL] | MIC (Pseudomonas aeruginosa [20]) [µg/mL] | MIC (Staphylococcus aureus [21]) [µg/mL] | MIC (Staphylococcus aureus [22]) [µg/mL] | MIC (Salmonella typhimurium) [µg/mL] | MIC (Staphylococcus aureus [23]) [µg/mL] | MIC (Escherichia coli [24]) [µg/mL] | also measured
1 | CN[C@@H]1CN(c2cc3c(cc2F)c(=O)c(C(=O)O)cn3C2CC2)C[C@H]1NC.Cl | > 8 | 0.06 | > 8 | 2 | 0.5 | > 8 | 1 | 1 | 2 | > 8 | 0.5 | > 8 | 0.5 | 0.06 | 2 | 1 | 1 | 0.5 | 0.5 | > 8 | MIC (Enterococcus faecalis [3]): 4 µg/mL; MIC (Pseudomonas aeruginosa [5]): > 8 µg/mL; MIC (Enterococcus faecalis [7]): 0.25 µg/mL; MIC (Pseudomonas aeruginosa [9]): 4 µg/mL; MIC (Escherichia coli [12]): 0.25 µg/mL; MIC (Escherichia coli [13]): 0.125 µg/mL; MIC (Staphylococcus aureus [14]): 0.5 µg/mL
2 | CN[C@@H]1CN(c2c(F)c(N)c3c(=O)c(C(=O)O)cn(C4CC4)c3c2F)C[C@H]1NC.Cl | > 8 | 0.03 | > 8 | 1 | 1 | > 8 | 0.25 | 0.25 | 1 | > 8 | 0.25 | > 8 | 0.5 | 0.06 | 0.5 | 0.25 | 0.25 | 0.125 | 0.25 | > 8 | MIC (Enterococcus faecalis [3]): 1 µg/mL; MIC (Pseudomonas aeruginosa [5]): > 8 µg/mL; MIC (Enterococcus faecalis [7]): 0.25 µg/mL; MIC (Pseudomonas aeruginosa [9]): 4 µg/mL; MIC (Escherichia coli [12]): 0.5 µg/mL; MIC (Escherichia coli [13]): 0.06 µg/mL; MIC (Staphylococcus aureus [14]): 0.5 µg/mL
3 | CCn1cc(C(=O)O)c(=O)c2cc(F)c(N3C[C@@H](NC)[C@H](NC)C3)c(F)c21.Cl | > 8 | 4 | > 8 | > 8 | 2 | > 8 | 8 | 1 | 4 | 4 | 1 | > 8 | 8 | 0.5 | 1 | 4 | 4 | 1 | 4 | > 8 | MIC (Enterococcus faecalis [3]): 8 µg/mL; MIC (Pseudomonas aeruginosa [5]): 8 µg/mL; MIC (Enterococcus faecalis [7]): 2 µg/mL; MIC (Pseudomonas aeruginosa [9]): 8 µg/mL; MIC (Escherichia coli [12]): 1 µg/mL; MIC (Escherichia coli [13]): 0.5 µg/mL; MIC (Staphylococcus aureus [14]): 4 µg/mL
4 | Cl.N[C@@H]1CN(c2cc3c(cc2F)c(=O)c(C(=O)O)cn3-c2ccc(F)cc2)C[C@H]1N | > 8 | 0.5 | > 8 | 1 | 1 | > 8 | 4 | 1 | 2 | 2 | > 8 | > 8 | > 8 | 1 | 2 | 1 | 1 | 1 | 1 | > 8 | MIC (Enterococcus faecalis [3]): 1 µg/mL; MIC (Pseudomonas aeruginosa [5]): > 8 µg/mL; MIC (Enterococcus faecalis [7]): 1 µg/mL; MIC (Pseudomonas aeruginosa [9]): 8 µg/mL; MIC (Escherichia coli [12]): 1 µg/mL; MIC (Escherichia coli [13]): 1 µg/mL; MIC (Staphylococcus aureus [14]): 1 µg/mL
5 | CN[C@@H]1CN(c2cc3c(cc2F)c(=O)c(C(=O)O)cn3-c2ccc(F)cc2)C[C@H]1NC.Cl | > 8 | 1 | > 8 | 0.25 | 1 | > 8 | 0.5 | 1 | 0.5 | 2 | 0.25 | > 8 | 0.5 | 0.125 | 2 | 0.5 | 0.5 | 1 | 0.25 | > 8 | MIC (Enterococcus faecalis [3]): 0.5 µg/mL; MIC (Pseudomonas aeruginosa [5]): 1 µg/mL; MIC (Enterococcus faecalis [7]): 0.25 µg/mL; MIC (Pseudomonas aeruginosa [9]): 4 µg/mL; MIC (Escherichia coli [12]): 1 µg/mL; MIC (Escherichia coli [13]): 0.5 µg/mL; MIC (Staphylococcus aureus [14]): 0.5 µg/mL
6 | O=C(O)c1cn(C2CC2)c2cc(N3CCNCC3)c(F)cc2c1=O [CIPROFLOXACIN] | > 8 |  | > 8 | > 8 | 1 (≈ 3.02 µM) | > 8 | 1 (≈ 3.02 µM) | 0.25 (≈ 0.754 µM) | 0.125 (≈ 0.377 µM) | 0.5 (≈ 1.51 µM) | 0.25 (≈ 0.754 µM) | > 8 | 1 (≈ 3.02 µM) | 0.03 (≈ 0.0905 µM) | 0.06 (≈ 0.181 µM) | 0.25 (≈ 0.754 µM) | 2 (≈ 6.04 µM) | 0.25 (≈ 0.754 µM) | 4 (≈ 12.1 µM) | > 8 | MIC (Enterococcus faecalis [3]): 4 µg/mL (≈ 12.1 µM); MIC (Staphylococcus aureus [14]): 0.5 µg/mL (≈ 1.51 µM); MIC (Pseudomonas fluorescens [25]): > 8 µg/mL
7 | CN[C@@H]1CN(c2cc3c(cc2F)c(=O)c(C(=O)O)cn3-c2ccccc2F)C[C@H]1NC.O=C(O)C(F)(F)F | > 8 | 0.03 | > 8 | 0.5 | 2 | > 8 | 1 | 1 | 4 | > 8 | 4 | > 8 | 2 | 0.06 | 4 | 4 | 4 | 1 | 4 | > 8 | MIC (Enterococcus faecalis [3]): 4 µg/mL; MIC (Pseudomonas aeruginosa [5]): > 8 µg/mL; MIC (Enterococcus faecalis [7]): 2 µg/mL; MIC (Pseudomonas aeruginosa [9]): 4 µg/mL; MIC (Escherichia coli [12]): 0.5 µg/mL; MIC (Escherichia coli [13]): 1 µg/mL; MIC (Staphylococcus aureus [14]): 0.5 µg/mL
8 | N[C@@H]1CN(c2cc3c(cc2F)c(=O)c(C(=O)O)cn3C2CC2)C[C@H]1N.O=C(O)C(F)(F)F | > 8 | 1 | > 8 | > 8 | 2 | > 8 | 2 | 2 | 2 | 1 | 1 | > 8 | 4 | 0.125 | 0.5 | 2 | 2 | > 8 | 8 | > 8 | MIC (Pseudomonas aeruginosa [26]): 4 µg/mL; MIC (Pseudomonas aeruginosa [5]): > 8 µg/mL; MIC (Enterococcus faecalis [7]): 1 µg/mL; MIC (Staphylococcus aureus [27]): 2 µg/mL; MIC (Escherichia coli [12]): 1 µg/mL; MIC (Enterococcus faecalis [28]): 4 µg/mL; MIC (Escherichia coli [13]): 0.25 µg/mL
9 | CCn1cc(C(=O)O)c(=O)c2cc(F)c(N3C[C@@H](N)[C@H](N)C3)c(F)c21.Cl | > 8 | 2 | > 8 | > 8 | 2 | > 8 | 8 | 2 | 4 | 4 | 1 | > 8 | > 8 | 0.125 | 1 | 2 | 2 | 0.5 | 4 | > 8 | MIC (Enterococcus faecalis [3]): 4 µg/mL; MIC (Pseudomonas aeruginosa [5]): > 8 µg/mL; MIC (Enterococcus faecalis [7]): 2 µg/mL; MIC (Pseudomonas aeruginosa [9]): > 8 µg/mL; MIC (Escherichia coli [12]): 1 µg/mL; MIC (Escherichia coli [13]): 0.5 µg/mL; MIC (Staphylococcus aureus [14]): 2 µg/mL
10 | CCn1cc(C(=O)O)c(=O)c2cc(F)c(N3CCNCC3)cc21 [NORFLOXACIN] | > 8 | 2 (≈ 6.26 µM) | > 8 | > 8 | 1 (≈ 3.13 µM) | > 8 | 0.5 (≈ 1.57 µM) | 1 (≈ 3.13 µM) | 1 (≈ 3.13 µM) | 0.25 (≈ 0.783 µM) | 0.25 (≈ 0.783 µM) | > 8 | 0.5 (≈ 1.57 µM) | 0.03 (≈ 0.0939 µM) | 0.125 (≈ 0.391 µM) | 4 (≈ 12.5 µM) | 4 (≈ 12.5 µM) | 0.5 (≈ 1.57 µM) | 4 (≈ 12.5 µM) | > 8 | MIC (Enterococcus faecalis [3]): 4 µg/mL (≈ 12.5 µM); MIC (Pseudomonas aeruginosa [5]): 2 µg/mL (≈ 6.26 µM); MIC (Enterococcus faecalis [7]): 2 µg/mL (≈ 6.26 µM); MIC (Pseudomonas aeruginosa [9]): 4 µg/mL (≈ 12.5 µM); MIC (Escherichia coli [12]): 0.125 µg/mL (≈ 0.391 µM); MIC (Escherichia coli [13]): 0.03 µg/mL (≈ 0.0939 µM); MIC (Staphylococcus aureus [14]): 1 µg/mL (≈ 3.13 µM); MIC (Pseudomonas fluorescens [25]): > 8 µg/mL
